For one molecule, IC50 results are on record in PubChem BioAssay AID743299 (The Scripps Research Institute Molecular Screening Center, 2014).

Molecules are shown by their SMILES.

For orientation: IC50 means the concentration that inhibits the measured activity by half.

This assay addresses methionyl-tRNA synthetase (Trypanosoma brucei brucei). Kind of assay: inhibition of trypanosomal methionyl-tRNA synthetase – biochemical, fluorescence polarization, dose response, round 2, orthogonal assay for T. brucei MetRS inhibitor project, late-stage follow-up (AID 743299). To be noted: recombinant T. brucei MetRS. For orientation: Polarisation of emitted light reports the rotation of a fluorescent probe.

For the molecule `CCN(CC)C(=O)C(=O)c1cn(CC(=O)Nc2cccc(C(F)(F)F)c2)c2ccccc12`, the concentration for half-maximal inhibition (IC50) was 181 nM.
